From patent publication US8445240B2, “Termite enzymes and uses thereof for in vitro conversion of lignin-containing materials to fermentable products” (University of Florida Research Foundation, Inc., priority 2009, dated 2013)
Several values for one entry are separate records, joined by “and”; a condition that tells them apart may be missing. Identical values can stand only once. Like-named read-outs stand apart in the source and are kept apart here.

Legend:
RfLacA = RfLacA (Reticulitermes flavipes, UniProt D0E8H0); test: RfLacA substrate specificity and kinetic parameters
Chain of RfLacA (D0E8H0 entry or part of it): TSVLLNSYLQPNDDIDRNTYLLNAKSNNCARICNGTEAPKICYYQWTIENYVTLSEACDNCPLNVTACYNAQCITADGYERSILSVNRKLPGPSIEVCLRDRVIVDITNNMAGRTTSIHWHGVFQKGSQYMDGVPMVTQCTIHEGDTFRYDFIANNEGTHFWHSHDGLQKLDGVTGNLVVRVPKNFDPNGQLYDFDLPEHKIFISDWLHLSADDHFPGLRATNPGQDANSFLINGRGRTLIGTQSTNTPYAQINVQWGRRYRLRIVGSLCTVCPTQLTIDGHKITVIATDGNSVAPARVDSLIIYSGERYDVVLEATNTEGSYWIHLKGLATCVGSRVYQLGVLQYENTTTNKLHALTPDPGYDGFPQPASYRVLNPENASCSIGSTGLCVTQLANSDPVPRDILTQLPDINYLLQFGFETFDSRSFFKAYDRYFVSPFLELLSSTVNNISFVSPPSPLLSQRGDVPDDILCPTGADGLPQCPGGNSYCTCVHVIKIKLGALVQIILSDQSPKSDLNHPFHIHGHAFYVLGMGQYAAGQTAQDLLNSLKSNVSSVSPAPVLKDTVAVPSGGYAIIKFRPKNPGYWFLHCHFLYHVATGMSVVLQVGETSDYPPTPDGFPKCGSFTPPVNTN

[1] = molecular target: T1, recombinant RfBGluc-1 β-glucosidase (Reticulitermes flavipes, UniProt D9ILU1); test: Activity of recombinant RfBGluc-1 towards natural substrates, endpoint glucose detection assay; type: biochemical
T1 sequence (D9ILU1 18-495): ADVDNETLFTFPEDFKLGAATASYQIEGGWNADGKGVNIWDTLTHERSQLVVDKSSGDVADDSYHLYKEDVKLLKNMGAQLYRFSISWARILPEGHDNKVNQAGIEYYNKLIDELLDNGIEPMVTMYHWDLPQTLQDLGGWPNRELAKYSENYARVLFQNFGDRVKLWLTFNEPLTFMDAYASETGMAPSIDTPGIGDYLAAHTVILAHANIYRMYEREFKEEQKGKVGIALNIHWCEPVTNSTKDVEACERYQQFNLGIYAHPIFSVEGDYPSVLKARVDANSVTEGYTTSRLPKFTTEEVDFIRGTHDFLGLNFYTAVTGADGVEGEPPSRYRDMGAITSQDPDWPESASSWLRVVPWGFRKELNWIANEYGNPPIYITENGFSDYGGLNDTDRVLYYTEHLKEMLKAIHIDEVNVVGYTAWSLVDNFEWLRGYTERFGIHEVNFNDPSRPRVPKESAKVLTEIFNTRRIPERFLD
Method: Natural carbohydrate substrates (Table 2) were tested in endpoint assays in which color development was enabled using 439-90901 glucose-mutarose detection reagent (Wako Chemical; Richmond, Va.). Assays were conducted in 125 μL for 5 min at room temperature as described above and stopped with the addition of 125 μL glucose detection reagent. After 1 min, the absorbance was read at 505 nm.

Cell-1 = settings: for effect on Cell-1 temperature stability: pre-incubation at 60° C. and 70° C., 0-60 min
Method: Thermal stability tests were conducted using 1.5% CMC in 100 mM sodium phosphate at the optimal pH of 7. Temperature-cofactor studies were performed using 1.5% CMC dissolved in 100 mM sodium phosphate (pH 7) alone, plus 4 mM EDTA (final concentration), or plus 10 mM calcium chloride (final concentration). Pre-incubations took place for 0-5 days at 25° C. or 0-60 min at 60° C. or 70° C.; reactions were terminated by the combination of adding stop solution and boiling for 10 min, and then assays were read at 25° C.
Calcium as a cofactor in β-1,4-endoglucanase Cell-1 hydrolytic activity and temperature stability: The effects of calcium on recombinant Cell-1 activity were investigated using calcium chloride as a calcium source and EDTA as a potential calcium chelator.

[2] = molecular target: T1, recombinant RfBGluc-1 β-glucosidase; test: Activity of recombinant RfBGluc-1 towards synthetic nitrophenol substrates, kinetic microplate assay; type: biochemical; settings: percent activity rankings based on Vmax; pNP-βD-Glucopyranoside = 100
Method: All initial characterization assays took place in 0.1 M sodium acetate buffer (pH 6) using 2 μL of recombinant enzyme preparation (=1.58 μg protein per assay) in a total reaction volume of 250 μL. Synthetic p-nitrophenol substrates (Table 1) were tested in direct kinetic assays using a microplate reader. Reactions were initiated by adding 248 μL assay buffer to 2 μL protein. Assays were read at 420 nm every 20 sec for 5 min to yield mean velocity data in mOD/min. Specific activity was determined with the p-nitrophenol extinction coefficient of 0.6605 mM^−1 cm^−1. All results were averaged from three independent replicates, each conducted in triplicate.

[3] = Characterisation of recombinant RfLacA and RfLacB isoforms; type: biochemical
[4] = RfLacA, 1 mM substrate, hydroquinone = 100

## COc1cccc(OC)c1O [2,6-DMP, 2,6-dimethoxyphenol]
RfLacA; RfLacA, per substrate
  Optimal pH: 7.5
RfLacA; RfLacA, 1 mM substrate
  Specific Activity at 1 mM [S]: 2.146 nmol·min/mg
RfLacA; [4]
  Relative Activity (%): 25.63%

## Oc1ccc(O)cc1 [Hydroquinone]
RfLacA
  Optimal pH: 7
  Relative Activity (%): 100.00%
  Specific Activity at 1 mM [S]: 8.373 nmol·min/mg
RfLacA; RfLacA, footnote: maximal specific activities in nmol/min/mg
  Apparent Vmax: 0.824 μm min^−1

## N[C@@H](Cc1ccc(O)c(O)c1)C(=O)O [L-DOPA]
RfLacA; RfLacA, per substrate
  Optimal pH: 6.0 and 7.5
RfLacA; RfLacA, 1 mM substrate
  Specific Activity at 1 mM [S]: 0.676 nmol·min/mg
RfLacA; [4]
  Relative Activity (%): 8.07%

## OC[C@H]1O[C@@H](O[C@H]2[C@H](O)[C@@H](CO)OC(O)[C@@H]2O)[C@H](O)[C@@H](O)[C@@H]1O (stereo partly shown) [Laminaribose]
[1]
  Activity (%): 34%

## CC(=O)NCCc1ccc(O)c(O)c1 [NADA]
RfLacA
  Relative Activity (%): 9.08%
RfLacA; RfLacA, 1 mM substrate
  Specific Activity at 1 mM [S]: 0.760 nmol·min/mg

## NCCC(=O)NCCc1ccc(O)c(O)c1 [NBAD]
RfLacA; RfLacA, 1 mM substrate
  Specific Activity at 1 mM [S]: 0.190 nmol·min/mg
RfLacA; [4]
  Relative Activity (%): 2.27%

## Oc1ccccc1O [Pyrocatechol]
RfLacA
  Relative Activity (%): 27.65%
RfLacA; RfLacA, per substrate
  Optimal pH: 7.5
RfLacA; RfLacA, 1 mM substrate
  Specific Activity at 1 mM [S]: 2.315 nmol·min/mg

## Oc1cccc(O)c1O [Pyrogallol]
RfLacA; RfLacA, per substrate
  Optimal pH: 7
RfLacA; RfLacA, 1 mM substrate
  Specific Activity at 1 mM [S]: 1.482 nmol·min/mg
RfLacA; [4]
  Relative Activity (%): 17.70%

## OCc1ccccc1O[C@@H]1O[C@H](CO)[C@@H](O)[C@H](O)[C@H]1O [Salicin]
[1]
  Activity (%): 44%

## COc1cc(/C=C/C(=O)O)cc(OC)c1O [Sinapinic Acid]
RfLacA
  Relative Activity (%): 40.40%
RfLacA; RfLacA, per substrate
  Optimal pH: 7.5
RfLacA; RfLacA, 1 mM substrate
  Specific Activity at 1 mM [S]: 3.383 nmol·min/mg

## OC[C@H]1O[C@@](CO)(O[C@H]2O[C@H](CO)[C@@H](O)[C@H](O)[C@H]2O)[C@@H](O)[C@@H]1O [Sucrose]
[1]
  Activity (%): 0%

## [Ca+2].[Cl-].[Cl-] [calcium chloride]
Cell-1; incubations over a 5-day period at about 25° C.
  effect on Cell-1 CMC endoglucanase activity: slightly enhanced
Cell-1
  effect on Cell-1 temperature stability: stabilized/extended CMC hydrolysis activity over time
Cell-1; listed as calcium
  effect on Cell-1 temperature stability: improves Cell-1 temperature stability

## O=[N+]([O-])c1cccc(O[C@H]2O[C@H](CO)[C@H](O)[C@H](O)[C@H]2O)c1 [mNP-αD-Galactopyranoside]
[2]
  Activity (%): 0%

## O=[N+]([O-])c1ccccc1O[C@@H]1O[C@H](CO)[C@@H](O)[C@H](O)[C@H]1O [oNP-βD-Glucopyranoside]
[2]
  Activity (%): 18%

## O=[N+]([O-])c1ccccc1O[C@@H]1O[C@H](CO)[C@@H](O)[C@H](O)[C@@H]1O [oNP-βD-Mannopyranoside]
[2]
  Activity (%): 0%

## O=[N+]([O-])c1ccccc1O[C@@H]1OC[C@@H](O)[C@H](O)[C@H]1O [oNP-βD-Xylopyranoside]
[2]
  Activity (%): 38%

## O=[N+]([O-])c1ccc(O[C@H]2O[C@H](CO)[C@H](O)[C@H](O)[C@H]2O)cc1 [pNP-αD-Galactopyranoside]
[2]
  Activity (%): 0%

## O=[N+]([O-])c1ccc(O[C@@H]2O[C@H](CO)[C@@H](O[C@@H]3O[C@H](CO)[C@@H](O)[C@H](O)[C@H]3O)[C@H](O)[C@H]2O)cc1 [pNP-βD-Cellobioside, p-nitrophenyl-beta-D-cellobioside]
[2]
  Activity (%): 60%

## O=[N+]([O-])c1ccc(O[C@@H]2O[C@H](CO)[C@@H](O[C@@H]3O[C@H](CO)[C@@H](O[C@@H]4O[C@H](CO)[C@@H](O[C@@H]5O[C@H](CO)[C@@H](O)[C@H](O)[C@H]5O)[C@H](O)[C@H]4O)[C@H](O)[C@H]3O)[C@H](O)[C@H]2O)cc1 [pNP-βD-Cellotetraoside, p-nitrophenyl-beta-D-cellotetraoside]
[2]
  Activity (%): 73%

## O=[N+]([O-])c1ccc(O[C@@H]2O[C@H](CO)[C@@H](O[C@@H]3O[C@H](CO)[C@@H](O[C@@H]4O[C@H](CO)[C@@H](O)[C@H](O)[C@H]4O)[C@H](O)[C@H]3O)[C@H](O)[C@H]2O)cc1 [pNP-βD-Cellotrioside, p-nitrophenyl-beta-D-cellotrioside]
[2]
  Activity (%): 98%

## C[C@H]1O[C@@H](Oc2ccc([N+](=O)[O-])cc2)[C@H](O)[C@@H](O)[C@H]1O [pNP-βD-Fucopyranoside]
[2]
  Activity (%): 55%

## O=[N+]([O-])c1ccc(O[C@@H]2O[C@H](CO)[C@H](O)[C@H](O)[C@H]2O)cc1 [pNP-βD-Galactopyranoside]
[2]
  Activity (%): 0%

## O=[N+]([O-])c1ccc(O[C@@H]2O[C@H](CO)[C@@H](O)[C@H](O)[C@H]2O)cc1 [pNP-βD-Glucopyranoside, p-nitrophenyl-beta-D-glucopyranoside]
[2]
  Activity (%): 100%

## O=C(O)[C@H]1O[C@@H](Oc2ccc([N+](=O)[O-])cc2)[C@H](O)[C@@H](O)[C@@H]1O [pNP-βD-Glucuronide]
[2]
  Activity (%): 0%

## O=[N+]([O-])c1ccc(O[C@@H]2OC[C@@H](O)[C@H](O)[C@H]2O)cc1 [pNP-βD-Xylopyranoside]
[2]
  Activity (%): 0%

## O=[N+]([O-])c1ccc(O[C@H]2OC[C@H](O)[C@H](O)[C@H]2O)cc1 [pNP-βL-Arabinopyranoside]
[2]
  Activity (%): 0%

## Cellobiose
[1]; percent activity rankings based on Vmax, cellobiose = 100
  Activity (%): 100%

B1: RfLacB: recombinant R. flavipes gut laccase isoform 2, clone Lac12, SEQ ID NO.: 12 (protein)
chain: VYRSDAYIMLPCVLLACAIGVASATSVLLNSYLQPNDDIDRNTYLLNAKSNNCARICNGTEAPKICYYQWTIENYVTLSEACDNCPLNVTACYNAQCITADGYERSILSVNRKLPGPSIEVCLRDRVIVDITNNMAGRTTSIHWHGVFQKGSQYMDGVPMVTQCTIHEGDTLRYDFIANNEGTHFWHSHDGLQKLDGVTGNLVVRVPKNFDPNGQLYDFDLPEHKIFISDWLHLSADDHFPGLRATNPGQDANSFLINGRGRTLIGTQSTNTPYAQINVQWGRRYRLRIVGSLCTVCPTQLTIDGHKITVIATDGNSVAPARVDSLIIYSGERYDVVLEATNTEGSYWIHLKGLVTCVGSRVYQLGVLQYENTTTNKLHALTPDPGYDGFPQPASYRVLNPENASCSIGSTGLCVTQLANSDPVPRDILTQLPDINYLLQFGFKIFDSRSFFKAYDRYFVSPFLDLVSSTVNNISSVSPPSPLLSQRGDVPDDVLCPTGADGLPQCPGGNSYCTCVHVIKIKLGALVQIILSDQTPKSGLNHPFHLHGHAFYVLGMGQYAAGQTAQDLLNSLKSNVSSVSPAPVLKDTIAVPSGGYAIIKFRPKNPGYWFLHCHFLYHVATGMSVVLQVGETSDYPPTPDGFPKCGSFTPPVNTN
modifications: Reticulitermes flavipes; amino acid sequence Laccase Lacc-12
[3]
  Results of RfLacB isoform compared with RfLacA against all substrates: statistically indistinguishable results to RfLacA
  oxidation of ABTS and syringaldazine: unable to oxidize
